Reference: patent publication US20190293634A1, “ISOLATED INTESTINAL MUCOSA AND USES THEREOF” (priority 2018, published 2019)
≈ marks a conversion by molar mass, not a printed value.

Columns and labels:
CYP24A1 mRNA = assay: Induction of CYP24A1 transcription in cryopreserved isolated intestinal mucosa (RT-PCR); format: cell-based, human; conditions: 24-hr treatment, dose dependent
Description: Gene transcription in the intestinal mucosa was quantified based on reverse transcription-real time PCR (RT-PCR) using the 7500 Fast Real-Time PCR system (Applied Biosystems, Foster City, Calif.). Total RNA was extracted using the mini RNeasy kit (QIAGEN, www.qiagen.com) according to instructions provided by the manufacturer for isolation of total RNA from the intestinal mucosa. At first, reverse transcription (RT) was performed with approximately 200 ng of isolated RNA using the High Capacity cDNA Reverse Transcription Kit (Thermo Fisher Scientific Inc., www.thermofisher.com). Subsequently, quantitative PCR analysis was performed on RT reactions using gene specific primer/probe sets and the Taqman Fast Universal PCR Master Mix (Thermo Fisher). The relative quantity of the target gene was compared with that of the reference transcription of […] (GAPDH) as determined by the […] and as previously described (Fahmi, Kish et al. 2010).
P450 induction in cryopreserved metabolically competent isolated intestinal mucosa was evaluated based on gene transcription. Following a 24-hr treatment period, dose dependent induction of CYP3A4 mRNA by rifampin and 25-hydroxyD3; and, CYP24A1 mRNA by 25-hydroxyD3 were observed. For CYP3A4, the maximal fold of induction was approximately 3-fold for both inducers. Data shown for 25-hydroxyD3 in FIG. 10C.

[1] = tested on: cryopreserved intestinal mucosa isolated from human duodenum, jejunum, and ileum; assay: in vitro; conditions: for IC50: Homo sapiens, read-out: IC50 (viability by cellular ATP contents), range over regions, duodenum, jejunum, and ileum of Donor 1
Description: (§1) The cryopreserved vials of the isolated intestinal mucosa comprising villi were removed from liquid nitrogen storage and thawed in a 37° C. water bath for approximately 2 min. The contents of each individual vial were decanted into a 50 ml conical tube containing Cryopreserved Enterocyte Recovery Medium, (In Vitro ADMET Laboratories, Columbia, Md.) that was pre-warmed in a 37° C. water bath. The thawed in vitro reagent was recovered by centrifugation at 100×g for 10 min at room temperature. After centrifugation, the supernatant was removed by decanting. A volume of 5 mL of 4° C. Hepatocyte/Enterocyte Incubation Medium, (In Vitro ADMET Laboratories, Columbia, Md.) was added to the intact pellet of enterocytes at the bottom of the conical tube followed by briskly re-pipetting 5 times with a P1000 micropipet to create an even suspension of the intestinal mucosal fragments.
(§2) In vitro cytotoxicity evaluation with cryopreserved intestinal mucosa was performed in 96-well plates. After recovery from cryopreservation as described above, the CHIM pellet was resuspended in 5 mL of Hepatocyte Incubation Medium (IVAL, Columbia, Md.). […] The cryopreserved intestinal mucosa cultures were then incubated in a CO2 cell culture incubator kept at 37° C. in a highly humidified atmosphere of 5% CO2. After an incubation duration of 24 hrs., cell viability was determined based on cellular ATP contents as previously described.
(§3) Data are presented as mean and standard deviation of triplicate incubations derived using the Microsoft Excel 6.0 software. Statistical analysis was performed using student's t-test with the Microsoft Excel 6.0 software, with the probability of p<0.05 to be considered statistically significant. Specific activity (pmol/min/mg protein) of each drug metabolizing enzyme pathway was determined by dividing the total metabolite formed by the incubation time and normalized to protein contents.

in vitro = conditions: human, IC50 (cytotoxicity)
Description: as §1, §2, §3

[2] = tested on: cryopreserved human intestinal mucosa; assay: Drug-induced enterotoxicity in cryopreserved human intestinal mucosa, viability by cellular ATP contents (Example 6); conditions: duodenum, jejunum and ileum, three donors, FIGS. 6 and 7
Description: A vial of cryopreserved intestinal mucosa was thawed in a 37 C deg. water bath and added to 50 mL of culture medium (Universal Cryopreservation Plating Medium, In Vitro ADMET Laboratories, Columbia, Md.). The recovered mucosa pellet was suspended in a protein free incubation medium (Hepatocyte Enterocyte Incubation Medium, In Vitro ADMET Laboratories, Columbia, Md.). […] The plate was incubated at 37 deg. C. for 24 hrs after which cell viability was determined by the quantification of cellular ATP contents (ATPLite, Perkin Elmers).

Compound | induction of CYP24A1 transcription (mRNA) (CYP24A1 mRNA) | induction of CYP24A1 transcription (mRNA) (CYP24A1 mRNA; listed as 25-hydroxyD3) | induction of CYP24A1 transcription (mRNA) (CYP24A1 mRNA; listed as vitamin D3) | cytotoxicity in cryopreserved intestinal mucosa (in words) [1] | IC50 [1] | IC50 at 24 h (in vitro) | cytotoxicity in cryopreserved intestinal mucosa (in words) ([1]; three donors, 24 hrs) | IC50 at 24 h (in vitro; Duodenum mucosa, 24 hrs, cellular ATP contents) | IC50 at 24 h (in vitro; Ileum mucosa, 24 hrs, cellular ATP contents) | IC50 at 24 h (in vitro; Jejunum mucosa, 24 hrs, cellular ATP contents) | viability in isolated intestinal mucosa (in words) [2]
C=C1/C(=C\C=C2/CCC[C@]3(C)[C@@H]([C@H](C)CCCC(C)(C)O)CC[C@@H]23)C[C@@H](O)C[C@@H]1O [1,25(OH)D3, 1,25-dihydroxyvitamin D3] | approximately 300 fold | Approximately 300 fold | approx. 300 fold |  |  |  |  |  |  |  | 
CC(=O)Nc1ccc(O)cc1 [APAP, acetaminophen] |  |  |  | Dose-dependent cytotoxicity | 920 to 1180 µg/mL (≈ 6090 to 7810 µM) | 2250 µg/mL (≈ 14900 µM) |  |  |  |  | 
COc1ccc2cc([C@H](C)C(=O)O)ccc2c1 [Naproxen, naproxen] |  |  |  |  | 350 to 390 µg/mL (≈ 1520 to 1690 µM) |  | Dose-dependent cytotoxicity | 350 µg/mL (≈ 1520 µM) | 360 µg/mL (≈ 1560 µM) | 390 µg/mL (≈ 1690 µM) | dose-dependent decrease in viability
